Experimental data from ChEMBL document CHEMBL4507326, “Data for DCP probe TP-030-2” (2021).

What was measured:
[1] = biological target: 5-hydroxytryptamine receptor 2B (Homo sapiens) (UniProt P41595); settings: Compound concentration 10.0 uM
[2] = biological target: Beta-adrenergic receptor kinase 1 (Homo sapiens, UniProt P25098); assay: BARK1 [GRK2(ADR1LGG5)] Takeda global kinase panel
[3] = biological target: cAMP-dependent protein kinase catalytic subunit PRKX (Homo sapiens, UniProt P51817); assay: PRKX(PRKXLGH5) Takeda global kinase panel
[4] = biological target: 5-hydroxytryptamine receptor 1B (Homo sapiens) (UniProt P28222); settings: Compound concentration 10.0 uM
[5] = biological target: eIF-2-alpha kinase GCN2 (Homo sapiens, UniProt Q9P2K8); assay: GCN2(EIK4PHK1) Takeda global kinase panel
[6] = biological target: Phosphatidylinositol 4,5-bisphosphate 3-kinase catalytic subunit alpha isoform (Homo sapiens, UniProt P42336); assay: PI3KCA(PI3ACGR1) Takeda global kinase panel
[7] = biological target: Serine/threonine-protein kinase OSR1 (Homo sapiens, UniProt O95747); assay: OSR1(OXS1LGY1) Takeda global kinase panel
[8] = biological target: Ephrin type-A receptor 7 (Homo sapiens, UniProt Q15375); assay: EphA7(EPA7LGF1) Takeda global kinase panel
[9] = biological target: 5-hydroxytryptamine receptor 1A (Homo sapiens) (UniProt P08908); settings: Compound concentration 10.0 uM
[10] = biological target: Protein kinase C alpha type (Homo sapiens, UniProt P17252); assay: PKCalpha(PRKALGY1) Takeda global kinase panel
[11] = biological target: Gamma-aminobutyric acid type B receptor subunit 1 (Homo sapiens) (UniProt Q9UBS5); assay: Inhibition of GABAB1A at compound concentration of 10.0 uM in the Eurofins-Panlabs radioligand binding assay (Eurofins_assay_228610); set-up: ligand concentration 4 nM; settings: Compound concentration 10.0 uM
[12] = biological target: Tyrosine-protein kinase HCK (Homo sapiens, UniProt P08631); assay: HCK(HCK1LGF1) Takeda global kinase panel
[13] = biological target: Protein kinase C epsilon type (Homo sapiens, UniProt Q02156); assay: PKCepsilon(PRKELHY1) Takeda global kinase panel
[14] = biological target: Wee1-like protein kinase 2 (Homo sapiens, UniProt P0C1S8); assay: Wee1B(WE1BLGF1) Takeda global kinase panel
[15] = biological target: LIM domain kinase 2 (Homo sapiens, UniProt P53671); assay: LIMK2(LIM2LGV1) Takeda global kinase panel
[16] = biological target: PAS domain-containing serine/threonine-protein kinase (Homo sapiens, UniProt Q96RG2); assay: PASK(PASKPHY1) Takeda global kinase panel
[17] = biological target: Tyrosine-protein kinase receptor UFO (Homo sapiens, UniProt P30530); assay: Axl(AXL1LGY1) Takeda global kinase panel
[18] = biological target: Macrophage colony-stimulating factor 1 receptor (Homo sapiens, UniProt P07333); assay: FmS [CSFR(CSF1LGC1)] Takeda global kinase panel
[19] = biological target: Leukocyte tyrosine kinase receptor (Homo sapiens, UniProt P29376); assay: LTK(LTK1LGF1) Takeda global kinase panel
[20] = biological target: Ribosomal protein S6 kinase alpha-1 (Homo sapiens, UniProt Q15418); assay: RSK1 [p90RSK(R6A2CGE1)] Takeda global kinase panel
[21] = biological target: Dual specificity protein kinase CLK4 (Homo sapiens, UniProt Q9HAZ1); assay: CLK4(CLK4IGF1) Takeda global kinase panel
[22] = biological target: Alpha-1D adrenergic receptor (Homo sapiens) (UniProt P25100); assay: Inhibition of Adrenergic alpha1D at 10 µM in the Eurofins-Panlabs radioligand binding assay (Eurofins_assay_203400); settings: Compound concentration 10.0 uM
[23] = biological target: Serine/threonine-protein kinase PLK1 (Homo sapiens, UniProt P53350); assay: PLK1(PLK1LGY1) Takeda global kinase panel
[24] = species: Rattus norvegicus; assay: Inhibition of Imidazoline I2, Central at 10 µM in the Eurofins-Panlabs radioligand binding assay (Eurofins_assay_241000); set-up: ligand concentration 2 nM; settings: Compound concentration 10.0 uM
[25] = biological target: Serine/threonine-protein kinase tousled-like 1 (Homo sapiens, UniProt Q9UKI8); assay: TLK1(TLK1LGP1) Takeda global kinase panel
[26] = biological target: 5'-AMP-activated protein kinase catalytic subunit alpha-1 (Homo sapiens, UniProt Q13131); assay: AMPKalpha1(PRA1PGF1) Takeda global kinase panel
[27] = biological target: Alpha-1D adrenergic receptor (Homo sapiens) (UniProt P25100); settings: Compound concentration 10.0 uM
[28] = biological target: Casein kinase I isoform alpha-like (Homo sapiens, UniProt Q8N752); assay: CK1alpha2(C1ALLGI5) Takeda global kinase panel
[29] = biological target: Receptor-interacting serine/threonine-protein kinase 1 (Homo sapiens, UniProt Q13546); assay: RIPK1(RIP1PGN1) Takeda global kinase panel
[30] = biological target: Vascular endothelial growth factor receptor 1 (Homo sapiens, UniProt P17948); assay: FLT1(FLT1LGC5) Takeda global kinase panel
[31] = biological target: Casein kinase I isoform gamma-3 (Homo sapiens, UniProt Q9Y6M4); assay: CK1gamma3(C1G3LGI5) Takeda global kinase panel
[32] = biological target: Sodium-dependent serotonin transporter (Homo sapiens) (UniProt P31645); settings: Compound concentration 10.0 uM
[33] = biological target: Tyrosine-protein kinase ABL2 (Homo sapiens, UniProt P42684); assay: Arg(ABL2LGF1) Takeda global kinase panel
[34] = biological target: Myotonin-protein kinase (Homo sapiens, UniProt Q09013); assay: DMPK(DMPKLGF1) Takeda global kinase panel
[35] = biological target: Protein kinase C eta type (Homo sapiens, UniProt P24723); assay: PKCeta(PRKHLGRA) Takeda global kinase panel
[36] = biological target: Serine/threonine-protein kinase/endoribonuclease IRE1 (Homo sapiens, UniProt O75460); assay: IRE1(ERN1PHY1) Takeda global kinase panel
[37] = biological target: Tyrosine-protein kinase SYK (Homo sapiens, UniProt P43405); assay: Syk(SYK1LHY1) Takeda global kinase panel
[38] = biological target: Serine/threonine-protein kinase 32C (Homo sapiens, UniProt Q86UX6); assay: YANK3(S32CLGI1) Takeda global kinase panel
[39] = biological target: Serine/threonine-protein kinase N1 (Homo sapiens, UniProt Q16512); assay: PKN1 [PRK1(PKN1LGY1)] Takeda global kinase panel
[40] = biological target: Casein kinase I isoform gamma-2 (Homo sapiens, UniProt P78368); assay: CK1gamma2(C1G2LGI1) Takeda global kinase panel
[41] = biological target: Beta-2 adrenergic receptor (Homo sapiens) (UniProt P07550); settings: Compound concentration 10.0 uM
[42] = biological target: Serine/threonine-protein kinase PINK1, mitochondrial (Homo sapiens, UniProt Q9BXM7); assay: PINK1(PIN1PHRE) Takeda global kinase panel
[43] = biological target: Protein kinase C beta type (Homo sapiens, UniProt P05771); assay: PKCbeta(PRKBPHY3) Takeda global kinase panel
[44] = biological target: Serine/threonine-protein kinase 32A (Homo sapiens, UniProt Q8WU08); assay: YANK1(S32APHY1) Takeda global kinase panel
[45] = biological target: Histamine H3 receptor (Homo sapiens) (UniProt Q9Y5N1); settings: Compound concentration 10.0 uM

Sequence of Alpha-1D adrenergic receptor (Homo sapiens) (P25100 whole entry, canonical isoform): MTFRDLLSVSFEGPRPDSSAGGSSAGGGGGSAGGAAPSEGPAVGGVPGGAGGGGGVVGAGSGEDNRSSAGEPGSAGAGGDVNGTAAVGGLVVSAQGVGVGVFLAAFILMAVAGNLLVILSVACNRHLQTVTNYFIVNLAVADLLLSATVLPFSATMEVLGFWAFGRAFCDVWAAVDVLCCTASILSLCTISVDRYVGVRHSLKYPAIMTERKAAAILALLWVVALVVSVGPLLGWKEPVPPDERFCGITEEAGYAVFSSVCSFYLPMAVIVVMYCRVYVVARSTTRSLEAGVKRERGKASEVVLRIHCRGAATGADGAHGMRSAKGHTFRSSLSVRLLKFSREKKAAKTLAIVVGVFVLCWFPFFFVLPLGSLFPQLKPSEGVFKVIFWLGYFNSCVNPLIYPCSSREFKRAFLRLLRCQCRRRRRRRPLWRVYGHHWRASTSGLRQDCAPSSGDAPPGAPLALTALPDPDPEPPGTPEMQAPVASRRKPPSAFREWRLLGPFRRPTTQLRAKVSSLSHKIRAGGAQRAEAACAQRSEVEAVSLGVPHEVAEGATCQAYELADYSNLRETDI
Sequence of Serine/threonine-protein kinase N1 (Q16512 whole entry, canonical isoform): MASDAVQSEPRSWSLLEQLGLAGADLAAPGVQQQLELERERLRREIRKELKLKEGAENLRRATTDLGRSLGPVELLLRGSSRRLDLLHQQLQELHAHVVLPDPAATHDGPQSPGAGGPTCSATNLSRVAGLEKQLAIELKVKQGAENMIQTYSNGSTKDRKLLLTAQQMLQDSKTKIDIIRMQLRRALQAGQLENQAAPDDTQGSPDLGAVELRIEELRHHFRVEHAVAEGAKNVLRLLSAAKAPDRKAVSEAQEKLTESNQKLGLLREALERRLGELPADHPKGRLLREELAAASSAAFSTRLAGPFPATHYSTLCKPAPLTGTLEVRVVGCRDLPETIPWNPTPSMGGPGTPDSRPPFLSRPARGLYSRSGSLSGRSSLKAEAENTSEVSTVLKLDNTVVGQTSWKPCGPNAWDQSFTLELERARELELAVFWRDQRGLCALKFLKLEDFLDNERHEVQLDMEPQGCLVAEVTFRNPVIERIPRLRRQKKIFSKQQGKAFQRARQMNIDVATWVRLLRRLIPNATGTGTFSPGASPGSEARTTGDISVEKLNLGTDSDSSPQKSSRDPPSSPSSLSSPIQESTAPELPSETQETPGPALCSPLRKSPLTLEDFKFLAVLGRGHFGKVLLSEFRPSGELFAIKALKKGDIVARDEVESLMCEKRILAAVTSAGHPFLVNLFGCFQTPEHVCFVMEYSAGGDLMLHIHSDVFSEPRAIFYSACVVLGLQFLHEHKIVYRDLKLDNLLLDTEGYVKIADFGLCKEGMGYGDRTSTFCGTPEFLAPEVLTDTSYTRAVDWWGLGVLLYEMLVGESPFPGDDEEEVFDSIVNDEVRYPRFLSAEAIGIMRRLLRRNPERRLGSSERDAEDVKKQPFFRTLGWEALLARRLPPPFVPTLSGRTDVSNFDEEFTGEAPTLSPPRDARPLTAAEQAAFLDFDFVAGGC
Sequence of Leukocyte tyrosine kinase receptor (P29376 whole entry): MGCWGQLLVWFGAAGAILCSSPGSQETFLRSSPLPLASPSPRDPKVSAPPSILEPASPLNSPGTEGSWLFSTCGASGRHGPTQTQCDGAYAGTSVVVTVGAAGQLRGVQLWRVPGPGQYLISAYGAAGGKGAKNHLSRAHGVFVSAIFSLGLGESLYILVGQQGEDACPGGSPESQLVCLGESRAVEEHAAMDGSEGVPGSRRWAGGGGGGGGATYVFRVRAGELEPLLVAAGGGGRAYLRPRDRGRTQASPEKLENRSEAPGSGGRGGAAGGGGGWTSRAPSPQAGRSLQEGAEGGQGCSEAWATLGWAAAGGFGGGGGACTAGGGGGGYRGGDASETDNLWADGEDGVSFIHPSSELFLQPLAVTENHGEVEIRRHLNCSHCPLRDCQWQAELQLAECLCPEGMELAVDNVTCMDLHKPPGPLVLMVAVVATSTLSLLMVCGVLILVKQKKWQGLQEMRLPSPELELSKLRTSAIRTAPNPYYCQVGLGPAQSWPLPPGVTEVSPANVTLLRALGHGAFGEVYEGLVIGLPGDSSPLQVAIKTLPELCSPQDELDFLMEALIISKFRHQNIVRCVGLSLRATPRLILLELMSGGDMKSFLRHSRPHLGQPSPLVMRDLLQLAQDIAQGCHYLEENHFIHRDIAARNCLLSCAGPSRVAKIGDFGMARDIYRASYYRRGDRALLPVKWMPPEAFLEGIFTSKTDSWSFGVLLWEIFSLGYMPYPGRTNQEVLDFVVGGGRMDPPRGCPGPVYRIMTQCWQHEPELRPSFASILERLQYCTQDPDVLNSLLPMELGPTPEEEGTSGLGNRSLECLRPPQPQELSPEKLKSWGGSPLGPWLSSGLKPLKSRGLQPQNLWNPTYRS
Sequence of Casein kinase I isoform gamma-3 (Q9Y6M4 whole entry, canonical isoform): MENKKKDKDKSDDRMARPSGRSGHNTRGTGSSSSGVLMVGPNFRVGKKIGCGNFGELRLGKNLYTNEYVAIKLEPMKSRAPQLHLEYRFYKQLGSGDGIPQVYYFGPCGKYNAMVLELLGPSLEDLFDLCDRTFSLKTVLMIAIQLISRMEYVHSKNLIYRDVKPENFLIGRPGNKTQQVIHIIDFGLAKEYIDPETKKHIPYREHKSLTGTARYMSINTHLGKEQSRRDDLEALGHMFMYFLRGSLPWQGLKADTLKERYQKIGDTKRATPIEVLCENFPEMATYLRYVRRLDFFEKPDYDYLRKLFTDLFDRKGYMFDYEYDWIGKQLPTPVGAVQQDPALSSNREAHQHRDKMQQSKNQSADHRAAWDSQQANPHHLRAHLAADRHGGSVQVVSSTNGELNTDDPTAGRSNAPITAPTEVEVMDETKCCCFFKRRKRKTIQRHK
Sequence of Phosphatidylinositol 4,5-bisphosphate 3-kinase catalytic subunit alpha isoform (P42336 whole entry, canonical isoform): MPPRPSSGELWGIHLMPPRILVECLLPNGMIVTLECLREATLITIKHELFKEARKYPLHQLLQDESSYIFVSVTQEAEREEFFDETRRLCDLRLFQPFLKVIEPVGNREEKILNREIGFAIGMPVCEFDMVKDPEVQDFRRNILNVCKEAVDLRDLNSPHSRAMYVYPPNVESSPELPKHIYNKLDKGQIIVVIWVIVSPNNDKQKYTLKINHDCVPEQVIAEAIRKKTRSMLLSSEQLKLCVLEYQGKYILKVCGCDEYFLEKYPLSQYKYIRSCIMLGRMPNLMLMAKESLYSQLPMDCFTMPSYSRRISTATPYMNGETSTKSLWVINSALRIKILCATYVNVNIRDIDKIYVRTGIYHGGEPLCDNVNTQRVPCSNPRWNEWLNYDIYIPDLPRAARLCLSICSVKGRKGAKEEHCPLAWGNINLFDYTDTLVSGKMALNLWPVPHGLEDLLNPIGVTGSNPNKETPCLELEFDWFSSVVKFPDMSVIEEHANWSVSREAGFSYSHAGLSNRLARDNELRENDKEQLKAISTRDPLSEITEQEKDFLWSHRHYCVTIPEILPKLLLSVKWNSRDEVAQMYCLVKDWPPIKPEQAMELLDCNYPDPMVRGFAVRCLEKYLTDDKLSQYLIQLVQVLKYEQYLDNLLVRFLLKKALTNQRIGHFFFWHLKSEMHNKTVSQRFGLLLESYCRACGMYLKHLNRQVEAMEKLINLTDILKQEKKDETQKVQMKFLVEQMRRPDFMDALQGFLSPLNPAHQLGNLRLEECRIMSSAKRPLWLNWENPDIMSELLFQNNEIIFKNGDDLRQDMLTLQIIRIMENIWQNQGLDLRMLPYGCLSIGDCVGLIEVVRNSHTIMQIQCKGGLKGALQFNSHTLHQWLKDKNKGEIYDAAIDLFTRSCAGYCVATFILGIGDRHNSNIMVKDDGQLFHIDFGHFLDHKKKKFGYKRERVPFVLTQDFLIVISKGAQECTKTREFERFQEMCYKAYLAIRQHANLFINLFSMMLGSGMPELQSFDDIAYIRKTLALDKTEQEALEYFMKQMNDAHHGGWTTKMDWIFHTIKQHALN
Sequence of Casein kinase I isoform alpha-like (Q8N752 whole entry, canonical isoform): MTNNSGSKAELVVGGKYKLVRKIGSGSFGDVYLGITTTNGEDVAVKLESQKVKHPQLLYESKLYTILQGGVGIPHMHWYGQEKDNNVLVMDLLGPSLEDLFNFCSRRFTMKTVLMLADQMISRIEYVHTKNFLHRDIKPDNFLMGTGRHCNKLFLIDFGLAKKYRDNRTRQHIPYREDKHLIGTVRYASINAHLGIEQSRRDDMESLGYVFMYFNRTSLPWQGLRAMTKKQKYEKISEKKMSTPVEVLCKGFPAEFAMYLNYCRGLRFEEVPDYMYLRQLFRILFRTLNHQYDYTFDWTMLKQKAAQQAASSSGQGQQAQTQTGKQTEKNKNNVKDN
Sequence of Protein kinase C epsilon type (Q02156 whole entry): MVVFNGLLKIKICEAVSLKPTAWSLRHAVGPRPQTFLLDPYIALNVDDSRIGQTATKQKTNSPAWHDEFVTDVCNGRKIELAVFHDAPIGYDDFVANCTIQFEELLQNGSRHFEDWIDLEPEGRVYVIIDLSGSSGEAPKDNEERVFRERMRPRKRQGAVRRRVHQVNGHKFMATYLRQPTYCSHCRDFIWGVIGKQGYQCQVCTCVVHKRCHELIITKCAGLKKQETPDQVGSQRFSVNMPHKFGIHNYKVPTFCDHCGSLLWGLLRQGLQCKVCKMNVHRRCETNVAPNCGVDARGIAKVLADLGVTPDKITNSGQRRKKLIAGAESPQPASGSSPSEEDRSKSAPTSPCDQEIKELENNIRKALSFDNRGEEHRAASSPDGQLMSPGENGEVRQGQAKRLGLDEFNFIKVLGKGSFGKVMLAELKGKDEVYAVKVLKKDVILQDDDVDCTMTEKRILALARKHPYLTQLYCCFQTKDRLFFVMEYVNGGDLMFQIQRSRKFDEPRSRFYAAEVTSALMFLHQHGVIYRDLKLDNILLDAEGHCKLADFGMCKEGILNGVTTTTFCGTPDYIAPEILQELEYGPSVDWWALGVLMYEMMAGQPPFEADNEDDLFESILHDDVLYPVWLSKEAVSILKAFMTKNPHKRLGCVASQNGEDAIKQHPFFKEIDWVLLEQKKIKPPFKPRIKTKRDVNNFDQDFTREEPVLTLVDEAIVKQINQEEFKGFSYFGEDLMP

SMILES: CN1C(=O)[C@@H](N2CCc3c(nn(Cc4ccccc4)c3Br)C2=O)COc2ccccc21 [TP-030-2]
- inhibition [1]: 38.3%
- IC50 [2]: 1000 nM
- IC50 [3]: 1000 nM
- inhibition [4]: -3.35%
- IC50 [5]: 1000 nM
- IC50 [6]: 1000 nM
- IC50 [7]: 1000 nM
- IC50 [8]: 1000 nM
- inhibition [9]: 18%
- IC50 [10]: 1000 nM
- inhibition [11]: 1%
- IC50 [12]: 1000 nM
- IC50 [13]: 1000 nM
- IC50 [14]: 1000 nM
- IC50 [15]: 1000 nM
- IC50 [16]: 1000 nM
- IC50 [17]: 1000 nM
- IC50 [18]: 1000 nM
- IC50 [19]: 1000 nM
- IC50 [20]: 1000 nM
- IC50 [21]: 1000 nM
- inhibition [22]: -2%
- IC50 [23]: 1000 nM
- inhibition [24]: -6%
- IC50 [25]: 1000 nM
- IC50 [26]: 1000 nM
- inhibition [27]: 5.52%
- IC50 [28]: 1000 nM
- IC50 [29]: 10 nM
- IC50 [30]: 1000 nM
- IC50 [31]: 1000 nM
- inhibition [32]: 22.6%
- IC50 [33]: 1000 nM
- IC50 [34]: 1000 nM
- IC50 [35]: 1000 nM
- IC50 [36]: 1000 nM
- IC50 [37]: 1000 nM
- IC50 [38]: 1000 nM
- IC50 [39]: 1000 nM
- IC50 [40]: 1000 nM
- inhibition [41]: -4%
- IC50 [42]: 1000 nM
- IC50 [43]: 1000 nM
- IC50 [44]: 1000 nM
- inhibition [45]: 5%
